Data as given in PubChem BioAssay AID588593 (Sanford-Burnham Center for Chemical Genomics, 2011).
Several values for one entry are separate records, joined by “and”; a condition that tells them apart may be missing. Identical values can stand only once. Activity calls are given as the source filed them. How the calls were made is not given here.

biological target: glucose-6-phosphate dehydrogenase-6-phosphogluconolactonase (Plasmodium falciparum 3D7); test: inhibition of P. falciparum G6PD activity – biochemical, kinetic NADPH detection, orthogonal assay, SAR follow-up (AID 588593); conditions: recombinant PfG6PD-6PGL

SMILES | IC50
CCN1CCCC1CNC(=O)c1ccc2c(c1)N(Cc1ccc(C(F)(F)F)cc1)C(=O)c1ccccc1S2 (configuration not stated) | > 80 µM (inactive)
O=C1Nc2cc(C(=O)NCCN3CCCCC3)ccc2S/C1=C\c1ccccc1F | 24 µM
CN1CCN(C(=O)c2ccc3c(c2)NC(=O)/C(=C/c2ccccc2Cl)S3)CC1 | > 80 µM (inactive)
CCN(CC)CCNC(=O)c1ccc2c(c1)N(Cc1ccccc1Cl)C(=O)c1ccccc1S2 | > 80 µM (inactive)
COc1ccc(/C=C2/Sc3ccc(C(=O)NCCN4CCCC4)cc3NC2=O)cc1 | > 80 µM (inactive)
Cc1ccccc1C(=O)Nc1nnc(S(=O)(=O)N2CCCc3ccccc32)s1 | 46.9 µM
COc1cccc(/C=C2/Sc3ccc(C(=O)NCCN4CCCC4)cc3NC2=O)c1 | 35.3 µM
COc1ccc(/C=C2/Sc3ccc(C(=O)NCCN4CCCCCC4)cc3NC2=O)cc1 | > 80 µM (inactive)
CCN(CC)CCNC(=O)c1ccc2c(c1)NC(=O)/C(=C\c1ccc(OC)c(OC)c1)S2 | 24.5 µM
O=C(Nc1nnc(S(=O)(=O)N2CCCCCC2)s1)c1ccco1 | 33.3 µM
O=C(NCCN1CCCC1)c1ccc2c(c1)NC(=O)c1ccccc1S2 | 60.5 µM
CCN1CCCC1CNC(=O)c1ccc2c(c1)N(Cc1ccccc1F)C(=O)c1ccccc1S2 (configuration not stated) | > 80 µM (inactive)
CCN(CC)CCNC(=O)c1ccc2c(c1)NC(=O)/C(=C\c1ccc(OC)cc1)S2 | 12.5 µM
O=C(Nc1nnc(S(=O)(=O)N2CCCCCC2)s1)C1CCCCC1 | 38.5 µM
COc1ccccc1C(=O)Nc1nnc(S(=O)(=O)N2CCCCCC2)s1 | 10 µM
O=C(NCCN1CCCCC1)c1ccc2c(c1)NC(=O)c1ccccc1O2 | 31.6 µM
O=C(Nc1nnc(S(=O)(=O)N2CCCCCC2)s1)c1ccccc1 | 13.3 µM
CCN1CCCC1CNC(=O)c1ccc2c(c1)NC(=O)CO2 (configuration not stated) | 41.4 µM
CCN(CC)CCNC(=O)c1ccc2c(c1)NC(=O)CO2 | > 80 µM (inactive)
CN(C)CCNC(=O)c1ccc2c(c1)NC(=O)CO2 | > 80 µM (inactive)
O=C(Nc1nnc(S(=O)(=O)N2CCCCCC2)s1)c1ccc(F)cc1 | 43.9 µM
O=C(Nc1nnc(S(=O)(=O)N2CCOCC2)s1)c1cccc(F)c1 | 51.9 µM

SMILES | IC50
COc1ccc(C(=O)Nc2nnc(S(=O)(=O)N3CCCCCC3)s2)cc1OC | 5.48 µM
O=C1Nc2cc(C(=O)NCCN3CCOCC3)ccc2S/C1=C\c1ccccc1F | > 80 µM (inactive)
COc1cccc(C(=O)Nc2nnc(S(=O)(=O)N3CCCCCC3)s2)c1 | 31.6 µM
CCOc1ccc(C(=O)Nc2nnc(S(=O)(=O)N3CCCCCC3)s2)cc1 | 23.8 µM
CCN(CCNC(=O)c1ccc2c(c1)NC(=O)c1ccccc1S2)c1ccccc1 | > 80 µM (inactive)
Cc1cccc(C(=O)Nc2nnc(S(=O)(=O)N3CCCCCC3)s2)c1 | 5.79 µM
Cc1ccc(C(=O)Nc2nnc(S(=O)(=O)N3CCCCCC3)s2)cc1 | 10.7 µM
CCN1CCCC1CNC(=O)c1ccc2c(c1)NC(=O)/C(=C\c1ccccc1F)S2 (configuration not stated) | 3.17 µM
CN(CCNC(=O)c1ccc2c(c1)NC(=O)c1ccccc1S2)C1CCCCC1 | 28.6 µM
Cc1ccc(C(=O)Nc2nnc(S(=O)(=O)N3CCCc4ccccc43)s2)cc1 | 54.6 µM
O=C(Nc1nnc(S(=O)(=O)N2CCCCCC2)s1)c1ccccc1F | 35.2 µM
CN1CCCC1CCNC(=O)c1ccc2c(c1)NC(=O)/C(=C/c1ccccc1F)S2 (configuration not stated) | 45.2 µM
O=C(NCCN1CCOCC1)c1ccc2c(c1)NC(=O)c1ccccc1O2 | > 80 µM (inactive)
CCN1CCCC1CNC(=O)c1ccc2c(c1)N(Cc1cccc(F)c1)C(=O)c1ccccc1S2 (configuration not stated) | > 80 µM (inactive)
O=C1Nc2cc(C(=O)NCCN3CCCC3)ccc2S/C1=C/c1ccccc1Cl | > 80 µM (inactive)
CCCN(CCC)CCNC(=O)c1ccc2c(c1)NC(=O)/C(=C\c1ccc(C)cc1)S2 | 45.9 µM
O=C(Nc1nnc(S(=O)(=O)N2CCCc3ccccc32)s1)c1cccc(F)c1 | 15.9 µM
CCN1CCCC1CNC(=O)c1ccc2c(c1)N(Cc1ccccc1Cl)C(=O)c1ccccc1S2 (configuration not stated) | > 80 µM (inactive)
O=C1Nc2cc(C(=O)NCc3ccccc3)ccc2S/C1=C\c1ccccc1F | > 80 µM (inactive)
Cc1cccc(C(=O)Nc2nnc(S(=O)(=O)N3c4ccccc4CC3C)s2)c1 (configuration not stated) | > 80 µM (inactive)
COc1ccc(/C=C2/Sc3ccc(C(=O)NCCN(C)C)cc3NC2=O)cc1 | > 80 µM (inactive)
Cc1ccc(CN2C(=O)c3ccccc3Sc3ccc(C(=O)NCCN(C)C)cc32)cc1 | > 80 µM (inactive)

SMILES | IC50
Cc1cccc(C(=O)Nc2nnc(S(=O)(=O)N3CCCc4ccccc43)s2)c1 | > 80 µM (inactive)
CCN1CCCC1CNC(=O)c1ccc2c(c1)NC(=O)c1ccccc1S2 (configuration not stated) | 8.01 µM and 6.42 µM
COc1cccc(/C=C2/Sc3ccc(C(=O)NCCN4CCCCCC4)cc3NC2=O)c1 | 58.5 µM
COc1ccc(C(=O)Nc2nnc(S(=O)(=O)N3CCCCCC3)s2)cc1 | 47.2 µM
CCN1CCCC1CNC(=O)c1ccc2c(c1)NC(=O)c1ccccc1O2 (configuration not stated) | 11.9 µM
O=C(Nc1nnc(S(=O)(=O)N2CCCCCC2)s1)c1cccc(Br)c1 | 7.09 µM
O=C1COc2ccc(C(=O)NCCN3CCCC3)cc2N1 | > 80 µM (inactive)
CCN1CCCC1CNC(=O)c1ccc2c(c1)NC(=O)/C(=C/c1ccccc1OC)S2 (configuration not stated) | 11.3 µM
O=C1COc2ccc(C(=O)NCCN3CCOCC3)cc2N1 | > 80 µM (inactive)
O=C1Nc2cc(C(=O)NCCN3CCCCCC3)ccc2S/C1=C/c1ccccc1Cl | > 80 µM (inactive)
Cc1cccc(N2CCN(CCNC(=O)c3ccc4c(c3)NC(=O)c3ccccc3S4)CC2)c1C | 47.9 µM
CCN(CC)CCNC(=O)c1ccc2c(c1)NC(=O)c1ccccc1S2 | 41.8 µM and 57.4 µM
O=C1Nc2cc(C(=O)NCCN3CCCCCC3)ccc2S/C1=C/c1ccccc1F | 11 µM
O=C(Nc1nnc(S(=O)(=O)N2CCCCCC2)s1)c1cccc(F)c1 | 18.1 µM
CCN1CCCC1CNC(=O)c1ccc2c(c1)NC(=O)/C(=C\c1ccccc1Cl)S2 (configuration not stated) | 3.32 µM
CCN(CC)CCNC(=O)c1ccc2c(c1)NC(=O)/C(=C/c1ccccc1)S2 | 18.4 µM
CCN(CCNC(=O)c1ccc2c(c1)N(Cc1cc(C)ccc1C)C(=O)c1ccccc1S2)c1ccccc1 | 48.2 µM
CCCN(CCC)CCNC(=O)c1ccc2c(c1)NC(=O)/C(=C/c1ccccc1)S2 | 27.2 µM
CN(C)CCNC(=O)c1ccc2c(c1)NC(=O)c1ccccc1O2 | > 80 µM (inactive)
CCN1CCC[C@H]1CNC(=O)c1ccc2c(c1)NC(=O)/C(=C/c1ccccc1F)S2 | 9.49 µM
CCN1CCCC1CNC(=O)c1ccc2c(c1)NC(=O)/C(=C/c1cccc3ccccc13)S2 (configuration not stated) | 4.2 µM
CCN1CCCC1CNC(=O)c1ccc2c(c1)NC(=O)CS2 (configuration not stated) | > 80 µM (inactive)

SMILES | IC50
CCN(CC)CCNC(=O)c1ccc2c(c1)N(Cc1ccc(C)cc1)C(=O)c1ccccc1S2 | > 80 µM (inactive)
Cc1ccc(C(=O)Nc2nnc(S(=O)(=O)N3c4ccccc4CC3C)s2)cc1 (configuration not stated) | > 80 µM (inactive)
O=C(NCCN1CCCC1)c1ccc2c(c1)NC(=O)c1ccccc1O2 | 35.6 µM
CN(C)CCNC(=O)c1ccc2c(c1)NC(=O)/C(=C\c1cccc(Cl)c1)S2 | 43.6 µM
CC1Cc2ccccc2N1S(=O)(=O)c1nnc(NC(=O)c2cccc(F)c2)s1 (configuration not stated) | 30.8 µM
CCN(CC)CCNC(=O)c1ccc2c(c1)NC(=O)/C(=C\c1ccccc1F)S2 | 9.37 µM
Cc1ccccc1C(=O)Nc1nnc(S(=O)(=O)N2CCCCCC2)s1 | 11.6 µM
Cc1cccc(C(=O)Nc2nnc(S(=O)(=O)N3CCC(C)CC3)s2)c1 | 9.09 µM
CCN(CCNC(=O)c1ccc2c(c1)N(CC)C(=O)c1ccccc1S2)c1ccccc1 | 44.6 µM
CCN(CC)CCNC(=O)c1ccc2c(c1)NC(=O)/C(=C\c1ccccc1Cl)S2 | 44.9 µM
CCN1CCCC1CNC(=O)c1ccc2c(c1)NC(=O)/C(=C/c1ccccc1C)S2 (configuration not stated) | 5.01 µM
CCC(C)N(CCNC(=O)c1ccc2c(c1)NC(=O)c1ccccc1S2)C1CCCCC1 (configuration not stated) | 4.02 µM
CCN1CCC[C@@H]1CNC(=O)c1ccc2c(c1)NC(=O)/C(=C/c1ccccc1F)S2 | 30.8 µM
CCN(CC)CCNC(=O)c1ccc2c(c1)NC(=O)c1ccccc1O2 | 62.3 µM
Cc1cccc(/C=C2/Sc3ccc(C(=O)NCCN4CCCC4)cc3NC2=O)c1 | 8.77 µM
O=C(Nc1nnc(S(=O)(=O)N2CCCCCC2)s1)c1cccc(Cl)c1 | 20.3 µM
O=C1COc2ccc(C(=O)NCCN3CCCCC3)cc2N1 | 77 µM
CCN(CC)CCNC(=O)c1ccc2c(c1)N(Cc1cc(C)ccc1C)C(=O)c1ccccc1S2 | > 80 µM (inactive)
O=C(Nc1nnc(S(=O)(=O)N2CCCCC2)s1)c1cccc(F)c1 | 34 µM
Cc1cccc(C(=O)Nc2nnc(S(=O)(=O)N3CCOCC3)s2)c1 | 24.2 µM
CC1Cc2ccccc2N1S(=O)(=O)c1nnc(NC(=O)c2cccc(Br)c2)s1 (configuration not stated) | > 80 µM (inactive)
